The results in this text go back to ChEMBL document CHEMBL1157656, “Fragment-based deconstruction of Bcl-xL inhibitors” (J Med Chem, 2010).

Where a name gives a salt, the structure may show the parent alone.

In test [1] the target is T1, Bcl-2-like protein 1 (Homo sapiens, UniProt Q07817). As to the kind of experiment: Binding affinity to 6xHis-tagged human Bcl-xL.
Test [2] has as its target T1, Bcl-2-like protein 1. In words: Inhibition of Bcl-xL.
The target of test [3] is T1, Bcl-2-like protein 1. In words: Inhibition of Bcl-xL expressed in Saccharomyces cerevisiae.

T1 sequence (Q07817 whole entry): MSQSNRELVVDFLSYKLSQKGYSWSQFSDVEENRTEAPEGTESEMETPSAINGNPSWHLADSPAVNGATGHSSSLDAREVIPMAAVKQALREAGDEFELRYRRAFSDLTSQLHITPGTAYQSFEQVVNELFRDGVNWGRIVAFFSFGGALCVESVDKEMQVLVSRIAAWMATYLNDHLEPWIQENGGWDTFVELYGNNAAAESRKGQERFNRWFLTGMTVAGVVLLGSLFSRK

One may read the Kd as the equilibrium constant for the complex coming apart. Higher therefore signals a looser complex. On to `Oc1ccccc1-c1ccccc1` [2-PHENYLPHENOL], for which the Kd in test [1] was found to be 2700 µM.
Usually IC50 stands for the concentration needed to halve the response being measured. A high value points to weaker potency in that assay. In turn, `Cc1cc2c(C(C)C)c(O)c(O)c(C=O)c2c(O)c1-c1c(C)cc2c(C(C)C)c(O)c(O)c(C=O)c2c1O` [GOSSYPOL] gave an IC50 in test [2] of 0.48 µM.
The compound `COC1=CC(c2cc3ccccc3[nH]2)=N/C1=C\c1[nH]c(C)cc1C` [OBATOCLAX MESYLATE] returned an IC50 in test [3] of 4.69 µM.
